≈ marks a conversion by molar mass, not a printed value. Bounds are passed on as bounds.

Holding throughout (format): functional
Experiment [1] relates to Staphylococcus aureus. Nature of the experiment: Antibacterial activity against Staphylococcus aureus ATCC 25923 by broth microdilution technique. In general terms: Dilution methods test growth across graded concentrations, often in twofold steps.
The test system of experiment [2] is Pseudomonas aeruginosa. Nature of the experiment: Antibacterial activity against multidrug resistant Pseudomonas aeruginosa clinical isolate by broth microdilution technique.
Experiment [3] concerns Staphylococcus epidermidis. Nature of the experiment: Antibacterial activity against Staphylococcus epidermidis ATCC 12228 by broth microdilution technique.
For experiment [4], the system named is Staphylococcus aureus. Nature of the experiment: Antibacterial activity against multidrug resistant Staphylococcus aureus clinical isolate by broth microdilution technique.
Another experiment concerns Enterococcus faecalis. Nature of the experiment: Antibacterial activity against Enterococcus faecalis ATCC 29212 by broth microdilution technique.
For another experiment, the system named is Escherichia coli. As to the kind of experiment: Antibacterial activity against Escherichia coli by broth microdilution technique.
In experiment [5] the test system is Pseudomonas aeruginosa. Nature of the experiment: Antibacterial activity against Pseudomonas aeruginosa by broth microdilution technique.
Experiment [6] concerns Staphylococcus epidermidis. Nature of the experiment: Selectivity ratio of MIC of ciprofloxacin to MIC of compound for Staphylococcus epidermidis ATCC 12228.

The term MIC denotes the least concentration at which growth counts as inhibited. With `CCC(O)c1cn(C2CCN(c3nc4c(cc3F)c(=O)c(C(=O)O)cn4C3CC3)CC2)nn1` (stereo unspecified), the MIC is 2 µg/mL (≈ 4.38 µM) with Staphylococcus aureus [1]; 32 µg/mL (≈ 70.1 µM) against Pseudomonas aeruginosa [2]; 2 µg/mL (≈ 4.38 µM) in experiment [3]; more than 32 µg/mL against Staphylococcus aureus [4]; 8 µg/mL (≈ 17.5 µM) in the experiment on Enterococcus faecalis; 1 µg/mL (≈ 2.19 µM) in the experiment with Escherichia coli. The compound also yielded an MIC against Pseudomonas aeruginosa [5] of 32 µg/mL (≈ 70.1 µM).
Regarding `COC(=O)c1cn(C2CCN(c3nc4c(cc3F)c(=O)c(C(=O)O)cn4C3CC3)CC2)nn1`, the MIC against Staphylococcus aureus [1] was 1 µg/mL (≈ 2.19 µM); in the experiment with Pseudomonas aeruginosa [2] it was 32 µg/mL (≈ 70.1 µM); in experiment [3] it was 1 µg/mL (≈ 2.19 µM); in the experiment with Staphylococcus aureus [4], more than 32 µg/mL; against Enterococcus faecalis, 16 µg/mL (≈ 35.1 µM); in the experiment on Escherichia coli it was 1 µg/mL (≈ 2.19 µM). The compound further gave an MIC in the experiment with Pseudomonas aeruginosa [5] of 32 µg/mL (≈ 70.1 µM).
`CCO/N=C/c1cn(C2CCN(c3nc4c(cc3F)c(=O)c(C(=O)O)cn4C3CC3)CC2)nn1`: the minimal inhibitory concentration (MIC) was 0.5 µg/mL (≈ 1.07 µM) in the experiment with Staphylococcus aureus [1]; 32 µg/mL (≈ 68.2 µM) against Pseudomonas aeruginosa [2]; 1 µg/mL (≈ 2.13 µM) in experiment [3]; 32 µg/mL (≈ 68.2 µM) against Staphylococcus aureus [4]; 4 µg/mL (≈ 8.52 µM) against Enterococcus faecalis; 4 µg/mL (≈ 8.52 µM) with Escherichia coli. The MIC in the experiment with Pseudomonas aeruginosa [5] was 32 µg/mL (≈ 68.2 µM).
Consider `O=C(O)c1cn(C2CC2)c2nc(N3CCC(n4cc(-c5ccccc5)nn4)CC3)c(F)cc2c1=O`, for which the minimum inhibitory concentration (MIC) against Staphylococcus aureus [1] is 0.5 µg/mL (≈ 1.05 µM); in experiment [3] it was 0.5 µg/mL (≈ 1.05 µM); in the experiment on Staphylococcus aureus [4], 0.5 µg/mL (≈ 1.05 µM); in the experiment with Enterococcus faecalis it was 1 µg/mL (≈ 2.11 µM); against Escherichia coli, 32 µg/mL (≈ 67.4 µM); against Pseudomonas aeruginosa [5], more than 32 µg/mL.
With `O=C(O)c1cn(C2CC2)c2nc(N3CCC(n4cc(/C=N/OCc5ccccc5)nn4)CC3)c(F)cc2c1=O`, the MIC in the experiment on Staphylococcus aureus [1] is 1 µg/mL (≈ 1.88 µM); with Pseudomonas aeruginosa [2] it was 32 µg/mL (≈ 60.2 µM); in experiment [3], 1 µg/mL (≈ 1.88 µM); in the experiment on Staphylococcus aureus [4], 4 µg/mL (≈ 7.53 µM); in the experiment on Enterococcus faecalis, 4 µg/mL (≈ 7.53 µM); against Escherichia coli, 8 µg/mL (≈ 15.1 µM). Besides, the lowest concentration to inhibit growth with Pseudomonas aeruginosa [5] (MIC) was 32 µg/mL (≈ 60.2 µM).
In the case of `O=C(O)c1cn(C2CC2)c2nc(N3CCC(n4cc(/C=N/O)nn4)CC3)c(F)cc2c1=O`, the MIC against Staphylococcus aureus [1] is 1 µg/mL (≈ 2.27 µM); in the experiment with Pseudomonas aeruginosa [2], 32 µg/mL (≈ 72.5 µM); in experiment [3] it was 1 µg/mL (≈ 2.27 µM); in the experiment on Staphylococcus aureus [4] it was more than 32 µg/mL; against Enterococcus faecalis, 4 µg/mL (≈ 9.06 µM); against Escherichia coli it was 2 µg/mL (≈ 4.53 µM). Moreover, the lowest concentration to inhibit growth in the experiment with Pseudomonas aeruginosa [5] (MIC) was 32 µg/mL (≈ 72.5 µM).
Turning to `CN[C@H](CC(C)C)C(=O)N[C@H]1C(=O)N[C@@H](CC(N)=O)C(=O)N[C@H]2C(=O)N[C@H]3C(=O)N[C@H](C(=O)N[C@H](C(=O)O)c4cc(O)cc(O)c4-c4cc3ccc4O)[C@H](O)c3ccc(c(Cl)c3)Oc3cc2cc(c3O[C@@H]2O[C@H](CO)[C@@H](O)[C@H](O)[C@H]2O[C@H]2C[C@](C)(N)[C@H](O)[C@H](C)O2)Oc2ccc(cc2Cl)[C@H]1O` [VANCOMYCIN], in the experiment with Enterococcus faecalis, the MIC came out at 0.5 µg/mL (≈ 0.345 µM).
Take `CO/N=C/c1cn(C2CCN(c3nc4c(cc3F)c(=O)c(C(=O)O)cn4C3CC3)CC2)nn1`: the MIC in the experiment with Staphylococcus aureus [1] was 0.25 µg/mL (≈ 0.549 µM); in the experiment on Pseudomonas aeruginosa [2], 32 µg/mL (≈ 70.3 µM); in experiment [3], 0.5 µg/mL (≈ 1.1 µM); with Staphylococcus aureus [4], more than 32 µg/mL; against Enterococcus faecalis, 4 µg/mL (≈ 8.78 µM); against Escherichia coli, 2 µg/mL (≈ 4.39 µM). Inhibition of growth with Pseudomonas aeruginosa [5] (MIC) required 32 µg/mL (≈ 70.3 µM).
For `C=CCO/N=C/c1cn(C2CCN(c3nc4c(cc3F)c(=O)c(C(=O)O)cn4C3CC3)CC2)nn1`, the MIC in the experiment with Staphylococcus aureus [1] was 0.5 µg/mL (≈ 1.04 µM); with Pseudomonas aeruginosa [2], 32 µg/mL (≈ 66.5 µM); in experiment [3], 2 µg/mL (≈ 4.15 µM); with Staphylococcus aureus [4] it was 8 µg/mL (≈ 16.6 µM); with Enterococcus faecalis, 8 µg/mL (≈ 16.6 µM); with Escherichia coli it was 4 µg/mL (≈ 8.31 µM). Further, the minimal inhibitory concentration (MIC) with Pseudomonas aeruginosa [5] is 32 µg/mL (≈ 66.5 µM).
For the compound `O=Cc1cn(C2CCN(c3nc4c(cc3F)c(=O)c(C(=O)O)cn4C3CC3)CC2)nn1`, the MIC against Staphylococcus aureus [1] was 0.125 µg/mL (≈ 0.293 µM); against Pseudomonas aeruginosa [2], 32 µg/mL (≈ 75 µM); in experiment [3] it was 0.031 µg/mL (≈ 0.0727 µM); against Staphylococcus aureus [4], more than 32 µg/mL; in the experiment on Enterococcus faecalis, 2 µg/mL (≈ 4.69 µM); against Escherichia coli, 0.25 µg/mL (≈ 0.586 µM). Moreover, the lowest concentration to inhibit growth in the experiment on Pseudomonas aeruginosa [5] (MIC) was 16 µg/mL (≈ 37.5 µM). Moreover, the Ratio in experiment [6] stood at 16.
On to `CC(O)c1cn(C2CCN(c3nc4c(cc3F)c(=O)c(C(=O)O)cn4C3CC3)CC2)nn1` (stereo unspecified), for which the MIC against Staphylococcus aureus [1] is 2 µg/mL (≈ 4.52 µM); in the experiment on Pseudomonas aeruginosa [2], 32 µg/mL (≈ 72.3 µM); in experiment [3] it was 2 µg/mL (≈ 4.52 µM); in the experiment with Staphylococcus aureus [4], more than 32 µg/mL; in the experiment with Enterococcus faecalis, 8 µg/mL (≈ 18.1 µM); in the experiment on Escherichia coli it was 1 µg/mL (≈ 2.26 µM). This compound also showed an MIC against Pseudomonas aeruginosa [5] of 32 µg/mL (≈ 72.3 µM).
For the compound `NC(=O)c1cn(C2CCN(c3nc4c(cc3F)c(=O)c(C(=O)O)cn4C3CC3)CC2)nn1`, the minimum inhibitory concentration (MIC) with Staphylococcus aureus [1] is 1 µg/mL (≈ 2.27 µM); against Pseudomonas aeruginosa [2] it was 32 µg/mL (≈ 72.5 µM); in experiment [3], 2 µg/mL (≈ 4.53 µM); against Staphylococcus aureus [4] it was more than 32 µg/mL; against Enterococcus faecalis, 4 µg/mL (≈ 9.06 µM); in the experiment with Escherichia coli, 4 µg/mL (≈ 9.06 µM). The MIC against Pseudomonas aeruginosa [5] was 32 µg/mL (≈ 72.5 µM).
For `C#CCO/N=C/c1cn(C2CCN(c3nc4c(cc3F)c(=O)c(C(=O)O)cn4C3CC3)CC2)nn1`, the MIC against Staphylococcus aureus [1] stood at 0.5 µg/mL (≈ 1.04 µM); in the experiment on Pseudomonas aeruginosa [2] it was 32 µg/mL (≈ 66.7 µM); in experiment [3], 1 µg/mL (≈ 2.09 µM); in the experiment with Staphylococcus aureus [4] it was 32 µg/mL (≈ 66.7 µM); in the experiment with Enterococcus faecalis, 8 µg/mL (≈ 16.7 µM); against Escherichia coli it was 4 µg/mL (≈ 8.34 µM). The MIC in the experiment with Pseudomonas aeruginosa [5] stood at 32 µg/mL (≈ 66.7 µM).
For the compound `NCc1cn(C2CCN(c3nc4c(cc3F)c(=O)c(C(=O)O)cn4C3CC3)CC2)nn1`, the MIC against Staphylococcus aureus [1] was 16 µg/mL (≈ 37.4 µM); in the experiment with Pseudomonas aeruginosa [2] it was 32 µg/mL (≈ 74.9 µM); in experiment [3], 32 µg/mL (≈ 74.9 µM); with Staphylococcus aureus [4], more than 32 µg/mL; against Enterococcus faecalis, more than 32 µg/mL; against Escherichia coli, 16 µg/mL (≈ 37.4 µM). This compound also yielded a minimal inhibitory concentration (MIC) against Pseudomonas aeruginosa [5] of 32 µg/mL (≈ 74.9 µM).
For `O=C(O)c1cn(C2CC2)c2cc(N3CCNCC3)c(F)cc2c1=O` [CIPROFLOXACIN], the MIC is 0.5 µg/mL (≈ 1.51 µM) in experiment [3] and 1 µg/mL (≈ 3.02 µM) in the experiment on Enterococcus faecalis.
With `O=C(O)c1cn(C2CC2)c2nc(N3CCC(n4cc(CO)nn4)CC3)c(F)cc2c1=O`, the MIC with Staphylococcus aureus [1] is 0.125 µg/mL (≈ 0.292 µM); in the experiment on Pseudomonas aeruginosa [2], 32 µg/mL (≈ 74.7 µM); in experiment [3], 0.5 µg/mL (≈ 1.17 µM); in the experiment on Staphylococcus aureus [4], more than 32 µg/mL; in the experiment on Enterococcus faecalis, 2 µg/mL (≈ 4.67 µM); in the experiment with Escherichia coli, 0.5 µg/mL (≈ 1.17 µM). Further, 32 µg/mL (≈ 74.7 µM) was the least that counted as inhibitory with Pseudomonas aeruginosa [5] (MIC).

The values are drawn from ChEMBL document CHEMBL1157887, “4-Substituted 4-(1H-1,2,3-triazol-1-yl)piperidine: novel C7 moieties of fluoroquinolones as antibacterial agents” (2010).
